According to US8735622B2, “Histone demethylase inhibitors and methods for using the same” (The Regents of the University of Colorado, a body corporate, priority 2011, dated 2014):
“Also recorded” adds a separate entry of the source.

Key:
JMJD2A = biological target: T1, JMJD2A (Homo sapiens, UniProt O75164); assay: JMJD2A enzyme activity assay (DELFIA); type: biochemical; settings: in vitro
T1 construct: Recombinant protein preparation of GASC1(1-420), JMJD2A (1-420) and LSD1 (full-length); made in house; host or cells: Escherichia coli BL-21
T1 sequence (O75164 1-420): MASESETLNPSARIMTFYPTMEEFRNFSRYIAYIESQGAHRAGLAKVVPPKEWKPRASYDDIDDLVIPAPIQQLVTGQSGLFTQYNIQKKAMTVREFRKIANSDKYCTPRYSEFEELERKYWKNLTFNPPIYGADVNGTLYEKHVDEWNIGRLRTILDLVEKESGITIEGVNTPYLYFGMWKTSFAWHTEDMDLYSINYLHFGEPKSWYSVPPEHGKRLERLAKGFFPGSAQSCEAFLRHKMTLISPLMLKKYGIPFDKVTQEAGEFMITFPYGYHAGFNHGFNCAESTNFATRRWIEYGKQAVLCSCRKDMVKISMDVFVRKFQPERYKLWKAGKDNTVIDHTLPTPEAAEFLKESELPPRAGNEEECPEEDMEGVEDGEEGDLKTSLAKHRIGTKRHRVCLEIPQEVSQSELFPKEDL
Description: (§1) In order to evaluate the inhibitory activity of 1 in vitro, a GST-fusion protein of the catalytic N-terminus of human GASC1 (gene amplified in squamous cell carcinoma 1) corresponding to amino acid 1-420 was cloned and purified. […] To evaluate the enzyme specificity of 1, the activity of 1 was examined against several other related enzymes in vitro.
(§2) The enzyme activity assays for GASC1 and JMJD2A were established on the DELFIA platform. DELFIA assays were performed in white, opaque 384-well plates coated with Streptavidin (Perkin Elmer). GST-GASC1(1-420) was diluted to 200 ng/well in 20 mM Tris HCl pH 8.5/2 mM glutathione and added in a volume of 20 μL. Blank wells received Tris/glutathione buffer only. Test compounds were diluted in DMSO and […] was pinned into the wells. Blank and control wells received only compound buffer. The reactions were initiated by the addition of 500 nM biotin-H3(1-20)K9me3 substrate, 10 μM FeSO4, 100 μM alpha-ketoglutarate in a volume of 20 μL, and incubated at room temperature for 60 minutes. The plates were washed 3 times with 100 μL of Wash Buffer (50 mM Tris pH 7.4, 150 mM NaCl, 0.05% Tween 20, 0.2% BSA). […] Time resolved fluorescence was measured after 45 minutes on an Envision Microplate Imager (Perkin Elmer Life Sciences) with 400 μs delay, excitation at 360 nm, and emission at 620 nm.

[1] = tested on: prolyl hydroxylases (PHDs); assay: Cellular HIF-1α level (prolyl hydroxylase specificity) in HeLa cells; type: cell-based, human; settings: 24 hours, methylstat 5, 10, 15 μM
Source text: To assess the specificity of methylstat in vivo, another iron(II)- and α-ketoglutarate-dependent dioxygenases, prolyl hydroxylases (PHDs), was examined. PHDs have been reported to regulate normoxic inactivation of hypoxia-inducible factors (HIFs) by hydroxylating specific prolyl residues of HIFs. […] DMOG and DFO have been used to mimic hypoxia conditions by inhibiting PHDs in vivo. […] Similar results were also observed in HeLa cells (see FIG. 7).
(§3) Total lysates of cells were generated from the cells lysed in CelLytic M Cell Lysis (Sigma) with protease inhibitor cocktail (Sigma), mixed with 2×LSB buffer (100 mM Tris-HCl pH 6.8, 200 mM DTT, 4% SDS, 20% glycerol and 0.2% bromophenol blue) and boiled for 5 min before SDS-PAGE. BCA assay (Thermo) was applied for protein qualification.

[2] = tested on: histone methylation marks in KYSE150 cells; assay: Western blotting of histone methylation marks in KYSE150 cells; type: cell-based, human; settings: KYSE150 cells, 5, 10, 15 μM, 48 hours
Description: Next, the cellular effects of methylstat were evaluated on a variety of histone methylation marks in KYSE150 cells. DMOG and DFO were used as positive controls, since they are known cell-active inhibitors of iron (II)- and α-ketoglutarate-dependent dioxygenases.
as §3
Histone extraction was generated from the cells lysed in Triton Extraction Buffer (TEB: PBS containing 0.5% Triton X 100 (v/v), 2 mM phenylmethylsulfonyl fluoride (PMSF), 0.02% (w/v) NaN3) at the density of 10^7 cells/mL. 0.2 N HCl was used to extract histone over night at 4° C.

LSD1 = biological target: T2, LSD1 (Homo sapiens, UniProt O60341); assay: LSD1 formaldehyde dehydrogenase coupled assay; type: biochemical; settings: in vitro
T2 construct: LSD1 (full-length) was expressed as glutathione S-transferase (GST) fusions; made in house; host or cells: Escherichia coli BL-21
Description: LSD1 activity was measured in a formaldehyde dehydrogenase coupled assay. 15 μL enzyme mix containing 2.4 μg GST-LSD1 in 20 mM TRIS pH 8.5, 1 mM NAD, 1.5 mU formaldehyde dehydrogenase, 0.5 mM glutathione was added, followed by pin transfer of 100 nL compound. Then reactions were started by addition of 15 μL 75 μM H3(1-20)K4me2 peptide, and NADH fluorescence was measured on a Envision Microplate Imager (Perkin Elmer Life Sciences) with excitation at 345 nm and emission at 460 nm, integration for 400 ms at 10 min and 80 min after peptide addition.

[3] = biological target: T3, human GASC1 (GST-GASC1(1-420)) (Homo sapiens, UniProt Q9H3R0); assay: GASC1 enzyme activity assay (DELFIA); type: biochemical; settings: in vitro
T3 construct: corresponding to amino acid 1-420 was cloned and purified; made in house; host or cells: Escherichia coli BL-21
T3 sequence (Q9H3R0 1-420): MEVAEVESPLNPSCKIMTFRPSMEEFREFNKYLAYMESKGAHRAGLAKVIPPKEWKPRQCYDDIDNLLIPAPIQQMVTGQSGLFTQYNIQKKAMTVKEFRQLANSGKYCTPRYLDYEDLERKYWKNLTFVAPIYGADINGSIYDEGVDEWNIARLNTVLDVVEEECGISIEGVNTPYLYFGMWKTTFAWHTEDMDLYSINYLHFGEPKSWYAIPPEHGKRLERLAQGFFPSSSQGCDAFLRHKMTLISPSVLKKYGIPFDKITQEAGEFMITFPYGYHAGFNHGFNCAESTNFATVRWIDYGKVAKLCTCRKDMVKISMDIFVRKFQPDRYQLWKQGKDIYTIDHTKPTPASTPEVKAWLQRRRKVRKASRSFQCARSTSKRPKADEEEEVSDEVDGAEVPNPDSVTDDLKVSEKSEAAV
Description: as §1, §2

inhibition of enzymatic activity of JMJD2A (JMJD2A): did not significantly inhibit
inhibition of FAD-dependent HDM LSD1 (LSD1): did not significantly inhibit
inhibition of enzymatic activity of GASC1 [3]: did not significantly inhibit
Compound: COC(=O)/C=C/C(=O)N(O)CCCCNCc1ccc(COC(=O)Nc2cccc3ccccc23)cc1 [methylstat]
cellular HIF-1α levels / prolyl hydroxylase inhibition [1]: did not significantly inhibit prolyl hydroxylases
hypermethylation of histone proteins (Western blot) [2]: induced hypermethylation of lysine residues; also recorded: induced hypermethylations of histone proteins in a concentration-dependent manner
